Details: 283.15 K, Liquid, Vibrating tube method

CCCCCCCCCC [decane]
Details	mass density [kg/m3]
18830 kPa	750.4
18862 kPa	750.3
18886 kPa	750.4
18919 kPa	750.4
18953 kPa	750.3
18975 kPa	750.3
19001 kPa	750.4
19028 kPa	750.5
19063 kPa	750.5
19088 kPa	750.4
19116 kPa	750.6
19142 kPa	750.5
19169 kPa	750.6
19195 kPa	750.6
19222 kPa	750.6
19245 kPa	750.6
19296 kPa	750.6
19437 kPa	750.6
19472 kPa	750.7
19500 kPa	750.8
19524 kPa	750.7
19561 kPa	750.8
19589 kPa	750.8
19627 kPa	750.9
19660 kPa	750.9
19683 kPa	750.9
19715 kPa	750.9
19742 kPa	750.9
19762 kPa	750.9
19786 kPa	750.9
19807 kPa	751
19842 kPa	751
19870 kPa	751
19891 kPa	751
19925 kPa	751
19953 kPa	751
19975 kPa	751
19996 kPa	751
20017 kPa	751
20039 kPa	751.1
20064 kPa	751.2
20082 kPa	751.2
20101 kPa	751.1
20121 kPa	751
20149 kPa	751.1
20174 kPa	751.2
20196 kPa	751.3
20219 kPa	751.1
20248 kPa	751.3
20268 kPa	751.2
20291 kPa	751.3
20310 kPa	751.2
20345 kPa	751.3
20368 kPa	751.2
20387 kPa	751.4
20410 kPa	751.3
20429 kPa	751.3
20462 kPa	751.3
20488 kPa	751.4
20508 kPa	751.3
20558 kPa	751.3
20627 kPa	751.4
20648 kPa	751.6
20677 kPa	751.4
20697 kPa	751.6
20731 kPa	751.6
20762 kPa	751.6
20782 kPa	751.6
20813 kPa	751.6
20841 kPa	751.6
20865 kPa	751.6
20894 kPa	751.6
20922 kPa	751.6
20942 kPa	751.6
20966 kPa	751.5
20994 kPa	751.7
21015 kPa	751.7
21043 kPa	751.8
21074 kPa	751.8
21095 kPa	751.8
21127 kPa	751.8
21151 kPa	751.8
21173 kPa	751.8
21194 kPa	751.8
21211 kPa	751.9
21240 kPa	752
21271 kPa	751.9
21296 kPa	751.8
21321 kPa	751.9
21353 kPa	751.9
21370 kPa	751.9
21403 kPa	751.9
21752 kPa	752.1
21805 kPa	752.2
21889 kPa	752.2
21915 kPa	752.2
21938 kPa	752.3
21972 kPa	752.3
22007 kPa	752.3
22031 kPa	752.3
22058 kPa	752.3
22089 kPa	752.3
22113 kPa	752.4
22147 kPa	752.4
22178 kPa	752.3
22201 kPa	752.4
22236 kPa	752.4
22272 kPa	752.5
22295 kPa	752.5
22335 kPa	752.4
22359 kPa	752.5
22386 kPa	752.6
22411 kPa	752.6
22446 kPa	752.5
22479 kPa	752.6
22503 kPa	752.5
22527 kPa	752.6
22564 kPa	752.6
22597 kPa	752.6
22622 kPa	752.7
22663 kPa	752.6
22697 kPa	752.7
22722 kPa	752.7
22759 kPa	752.7
22793 kPa	752.8
22818 kPa	752.9
22847 kPa	752.9
22881 kPa	752.9
22919 kPa	752.9
23017 kPa	752.9
23052 kPa	752.9
23107 kPa	753
23142 kPa	753
23169 kPa	752.9
23192 kPa	753.1
23212 kPa	753.1
23237 kPa	753.1
23257 kPa	753.2
23291 kPa	753.1
23311 kPa	753.2
23338 kPa	753.1
23363 kPa	753.2
23386 kPa	753.2
23410 kPa	753.2
23441 kPa	753.2
23462 kPa	753.2
23489 kPa	753.3
23513 kPa	753.1
23530 kPa	753.2
23558 kPa	753.3
23590 kPa	753.3
23611 kPa	753.3
23638 kPa	753.3
23667 kPa	753.4
23689 kPa	753.3
23714 kPa	753.3
23743 kPa	753.4
23766 kPa	753.4
23786 kPa	753.5
23812 kPa	753.4
23835 kPa	753.5
23855 kPa	753.4
23875 kPa	753.4
23904 kPa	753.5
23928 kPa	753.5
23957 kPa	753.5
23977 kPa	753.6
24007 kPa	753.5
24024 kPa	753.6
24061 kPa	753.7
24135 kPa	753.6
24155 kPa	753.6
24179 kPa	753.7
24242 kPa	753.6
24265 kPa	753.7
24286 kPa	753.7
24309 kPa	753.7
24330 kPa	753.8
24362 kPa	753.7
24389 kPa	753.7
24410 kPa	753.7
24434 kPa	753.8
24452 kPa	753.9
24490 kPa	753.9
24511 kPa	753.7
24533 kPa	753.8
24564 kPa	753.9
24596 kPa	753.8
24618 kPa	753.9
24642 kPa	753.8
24660 kPa	753.9
24682 kPa	753.9
24710 kPa	754
24739 kPa	753.9
24764 kPa	753.9
24796 kPa	754
24819 kPa	754
24845 kPa	754.1
24871 kPa	754.1
24904 kPa	754.2
24924 kPa	754.1
24954 kPa	754.2
24981 kPa	754.1
25004 kPa	754.2
25025 kPa	754.1
25048 kPa	754
25068 kPa	754.2
25099 kPa	754.3
25121 kPa	754.2
25141 kPa	754.3
25168 kPa	754.2
25199 kPa	754.3
25220 kPa	754.3
25248 kPa	754.2
25268 kPa	754.3
25286 kPa	754.3
25313 kPa	754.2
25335 kPa	754.3
25366 kPa	754.4
25398 kPa	754.5
25416 kPa	754.3
25477 kPa	754.4
25498 kPa	754.4
25523 kPa	754.5
25544 kPa	754.5
25566 kPa	754.5
25591 kPa	754.5
25620 kPa	754.5
25645 kPa	754.5
25669 kPa	754.5
25695 kPa	754.6
25712 kPa	754.5
25739 kPa	754.7
25768 kPa	754.7
25788 kPa	754.7
25818 kPa	754.6
25845 kPa	754.4
25865 kPa	754.6
25888 kPa	754.7
25908 kPa	754.6
25939 kPa	754.7
25967 kPa	754.7
25992 kPa	754.7
26022 kPa	754.7
26046 kPa	754.8
26065 kPa	754.7
26099 kPa	754.8
26119 kPa	754.9
26136 kPa	754.7
26166 kPa	754.8
26197 kPa	754.7
26220 kPa	754.9
26245 kPa	754.8
26273 kPa	754.8
26300 kPa	754.8
26324 kPa	754.9
26341 kPa	755
26368 kPa	754.9
26389 kPa	755
26421 kPa	755
26445 kPa	755
26466 kPa	755
26490 kPa	755
26510 kPa	755.1
26538 kPa	755.1
26567 kPa	755.1
26591 kPa	755
26624 kPa	755.2
26652 kPa	755.2
26677 kPa	755.2
26694 kPa	755.2
26726 kPa	755.2
26754 kPa	755.3

From the NIST ThermoML archive (doi:10.1021/je800110r)
